Laboratory results from a polymer gas permeability compilation.

SMILES | CH4 permeability | CO2 permeability | H2 permeability | N2 permeability | O2 permeability
*c1ccc(C(c2ccc(N3C(=O)c4ccc(Oc5cc(C)c(Oc6ccc7c(c6)C(=O)N(*)C7=O)c(C)c5C)cc4C3=O)cc2)(C(F)(F)F)C(F)(F)F)cc1 (repeat unit) | 1.7 Barrer | 54 Barrer | 77 Barrer | 1.9 Barrer | 9.3 Barrer
*c1ccc(Cc2ccc(N3C(=O)c4ccc(Oc5ccc(Oc6ccc7c(c6)C(=O)N(*)C7=O)cc5)cc4C3=O)cc2)cc1 (repeat unit) | 0.0222 Barrer | 1.22 Barrer | 5.08 Barrer | 0.0357 Barrer | 0.242 Barrer
*Oc1ccc(S(=O)(=O)c2ccc(Oc3ccc(C(C)(C)c4cccc(*)c4)cc3)cc2)cc1 (repeat unit) | 0.0432 Barrer | 1.5 Barrer |  | 0.0661 Barrer | 0.39 Barrer
*CC(*)(C)C(=O)OCC(F)(F)C(F)(F)C(F)(F)C(F)(F)C(F)(F)C(F)(F)C(F)(F)F (repeat unit) | 14 Barrer | 130 Barrer | 82 Barrer | 15 Barrer | 30 Barrer
*CC[Si](C)(C)c1ccc([Si](*)(C)C)cc1 (repeat unit) | 0.53 Barrer | 4.01 Barrer |  | 0.257 Barrer | 1.11 Barrer
*C(C)=C(*)CC(C)C (repeat unit) | 190 Barrer | 900 Barrer | 750 Barrer | 93 Barrer | 245 Barrer
*O[Si](*)(C)CC (repeat unit) | 474 Barrer | 1510 Barrer |  | 160 Barrer | 332 Barrer
*c1ccc(-c2ccc(-c3ccc(C(*)(c4ccccc4)C(F)(F)F)cc3)cc2)cc1 (repeat unit) | 13 Barrer | 220 Barrer | 126 Barrer | 9 Barrer | 32 Barrer
*c1ccc(Oc2ccc(C(c3ccc(Oc4ccc(N5C(=O)c6ccc(-c7ccc8c(c7)C(=O)N(*)C8=O)cc6C5=O)cc4)cc3)(C(F)(F)F)C(F)(F)F)cc2)cc1 (repeat unit) | 0.18 Barrer | 6.14 Barrer | 17.3 Barrer | 0.275 Barrer | 1.6 Barrer
*Cc1cc(Cl)c(C*)cc1Cl (repeat unit) |  | 0.783 Barrer |  | 0.0271 Barrer | 0.181 Barrer
*c1ccc2c(c1)C(=O)n1c-2nc2ccc(Oc3ccc4c(c3)nc3n4C(=O)c4ccc(*)cc4-3)cc21 (repeat unit) |  |  | 6.56 Barrer | 0.023 Barrer | 0.24 Barrer
*Oc1c(Br)cc(C2(c3cc(Br)c(OC(=O)c4cccc(C(*)=O)c4)c(Br)c3)OC(=O)c3ccccc32)cc1Br (repeat unit) | 0.206 Barrer | 8.34 Barrer | 27.1 Barrer | 0.282 Barrer | 1.96 Barrer
*Nc1c(C)cc(C(C)(C)c2cc(C)c(NC(=O)c3ccc(Oc4cc(C(C)(C)C)c(Oc5ccc(C(*)=O)cc5)cc4C(C)(C)C)cc3)c(C)c2)cc1C (repeat unit) | 2.24 Barrer | 43 Barrer |  | 1.73 Barrer | 9.38 Barrer
*C(=C(*)c1ccc2c(c1)Cc1ccccc1-2)c1ccccc1 (repeat unit) | 2400 Barrer | 8500 Barrer | 3650 Barrer | 1300 Barrer | 2150 Barrer
*Oc1ccc(C(c2ccc(Oc3ccc(S(=O)(=O)c4ccc(*)cc4)cc3)cc2)c2ccccc2C(=O)O)cc1 (repeat unit) | 0.0395 Barrer | 2.25 Barrer | 7.22 Barrer | 0.0437 Barrer | 0.441 Barrer
*c1cc(C(=O)OCCC(F)(F)C(F)(F)C(F)(F)C(F)(F)C(F)(F)C(F)(F)F)cc(N2C(=O)c3ccc(C(c4ccc5c(c4)C(=O)N(*)C5=O)(C(F)(F)F)C(F)(F)F)cc3C2=O)c1 (repeat unit) | 0.44 Barrer | 17.8 Barrer |  | 0.74 Barrer | 4.74 Barrer
*CC(*)(C)C (repeat unit) |  |  | 13.3 Barrer | 0.76 Barrer | 2.89 Barrer
